Counter-ions that a name gives are not always drawn.
Experiments:
Format in all cases: cell-based, human
EAC42 cells = experiment: FDA library drug sensitivity testing (CellTiter-Glo, 72 h); details: EAC42; sDSSmod = DSSmod (patient cells) - DSSmod (normal cells)
Excerpt: (§1) OE33, OE19 and SKGT2 human esophageal adenocarcinoma cell lines were obtained from the European Collection of Cell Culture ([…]). Flo1, EAC42 and EAC47 cells were established in the Capobianco Laboratory. EAC42 and EAC47 human esophageal adenocarcinoma cell lines are derived from patients undergoing surgery at the Miller School of Medicine, University of Miami. The Capobianco laboratory obtained written informed consent from all patients and approval from the Institutional Research Ethics Committee.
(§2) Drug sensitivity testing (DST) was performed as described previously. […] Individual drugs were dissolved in 100% DMSO and tested in duplicates starting at a maximal test concentration of 10μM then over a 20,000-fold concentration range to generate dose response curves. Wells with assay buffer containing DMSO served as negative controls. 1000 exponentially growing cells were seeded per well in 384-well micro-titer plates and incubated in the presence of compounds in a humidified environment at 37°C and 5% CO2. After 72 hours of treatment, cell viability was assessed by measuring ATP levels via bioluminescence (CellTiter-Glo, Promega) according to manufactures recommendations. Interpretation of curve parameters was performed according to the modified drug sensitivity scoring (DSSmod) function developed by Swords et al. […] Given in this way, the sDSSmod incorporated information on each drug’s potency, efficacy, effect range and therapeutic index, making it possible to prioritize compounds over multiple parameters using a single numerical metric. […] All calculations and scoring routines are implemented in MatLab and additional curve fitting and statistical analyses are performed in GraphPad prism.

OE33 cells = experiment: as above; details: OE33; sDSSmod = DSSmod (patient cells) - DSSmod (normal cells)
Excerpt: as §1, §2

OE19 cells = experiment: as above; details: sDSSmod = DSSmod (patient cells) - DSSmod (normal cells)
Excerpt: as §1, §2

EAC47 cells = experiment: as above; details: EAC47; sDSSmod = DSSmod (patient cells) - DSSmod (normal cells)
Excerpt: as §1, §2

SK-GT2 cells = experiment: as above; details: SK-GT2; sDSSmod = DSSmod (patient cells) - DSSmod (normal cells)
Excerpt: as §1, §2

[1] = system: normal esophageal epithelium cell line EACN42; experiment: FDA library drug sensitivity testing (CellTiter-Glo, 72 h), normal control cells; parameters: key to DSS: modified drug sensitivity score (DSSmod) from dose-response curve fit
In short: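 HPV E6-E7-immortalized normal human esophageal epithelial cells, 1000 per well, exposed 72 h at 37 °C to drugs in duplicate from 10μM top concentration across a 20,000-fold range. Viability by ATP bioluminescence; DMSO wells as negative control; curves scored with modified drug sensitivity score (DSSmod).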

Flo-1 cells = experiment: FDA library drug sensitivity testing (CellTiter-Glo, 72 h); details: Flo-1; sDSSmod = DSSmod (patient cells) - DSSmod (normal cells)
Excerpt: as §1
Drug sensitivity testing (DST) was performed as described previously. […] Individual drugs were dissolved in 100% DMSO and tested in duplicates starting at a maximal test concentration of 10μM then over a 20,000-fold concentration range to generate dose response curves. Wells with assay buffer containing DMSO served as negative controls. 1000 exponentially growing cells were seeded per well in 384-well micro-titer plates and incubated in the presence of compounds in a humidified environment at 37°C and 5% CO2. After 72 hours of treatment, cell viability was assessed by measuring ATP levels via bioluminescence (CellTiter-Glo, Promega) according to manufactures recommendations. Interpretation of curve parameters was performed according to the modified drug sensitivity scoring (DSSmod) function developed by Swords et al. As a final step, the selective DSSmod (sDSSmod) for each drug in each patient screen is calculated according to the formula sDSSmod = DSSmod (patient cells)—DSSmod (normal cells). Given in this way, the sDSSmod incorporated information on each drug’s potency, efficacy, effect range and therapeutic index, making it possible to prioritize compounds over multiple parameters using a single numerical metric. In addition, this methodology allows us to rank compounds by cancer-selective efficacy for each individual patient. […] All calculations and scoring routines are implemented in MatLab and additional curve fitting and statistical analyses are performed in GraphPad prism.

[2] = Homo sapiens, 72 h, EACN42 normal esophageal cells, cell viability (ATP), max test concentration 10μM
[3] = drug sensitivity score, EACN42 normal esophageal cells, 72 h
[4] = Homo sapiens; EACN42 normal esophageal cells, 72 h, cell viability (ATP), max test concentration 10μM

SMILES	sDSSmod (EAC42 cells)	sDSSmod (OE33 cells)	sDSSmod (OE19 cells)	sDSSmod (EAC47 cells)	sDSSmod (SK-GT2 cells)	EC50 [1, 2]	DSS [1, 3]	sDSSmod (Flo-1 cells)	EC50 [1, 4]	EC50 ([1]; EACN42 normal esophageal cells, 72 h, cell viability (ATP), max test concentration 10μM)
CCC(C)(C)C(=O)O[C@H]1C[C@@H](C)C=C2C=C[C@H](C)[C@H](CC[C@@H]3C[C@@H](O)CC(=O)O3)[C@H]21 [Simvastatin]	-5.363	26.15	-5.647	-5.66	-5.66	3350 nM	5.66	–	–	–
COc1cccc2c1C(=O)c1c(O)c3c(c(O)c1C2=O)C[C@@](O)(C(C)=O)C[C@@H]3O[C@H]1C[C@H](N)[C@H](O)[C@H](C)O1 [Daunorubicin HCl]	–	–	-13.6679	–	–	–	21.12	5.15	980 nM	–
CC[C@]1(O)C[C@H]2CN(CCc3c([nH]c4ccccc34)[C@@](C(=O)OC)(c3cc4c(cc3OC)N(C=O)[C@H]3[C@@](O)(C(=O)OC)[C@H](OC(C)=O)[C@]5(CC)C=CCN6CC[C@]43[C@@H]65)C2)C1 [Vincristine]	-7.92	-8.234	–	-16.3015	-7.21	30 nM	–	6.31	–	–
O=P(O)(O)C(O)(Cn1ccnc1)P(=O)(O)O [Zoledronic Acid]	9.833	–	–	6.526	–	–	0	5.26	–	–
C/C=C(\C)C(=O)N[C@@H](c1ccccc1)[C@@H](O)C(=O)O[C@H]1C[C@@]2(O)[C@@H](OC(=O)c3ccccc3)[C@@H]3[C@]4(OC(C)=O)CO[C@@H]4C[C@H](O)[C@@]3(C)C(=O)[C@H](OC(C)=O)C(=C1C)C2(C)C [Cephalomannine]	-5.552	5.452	–	-8.868	21.46	–	23.35	12.79	162 nM	–
Nc1nc(F)nc2c1ncn2[C@@H]1O[C@H](CO)[C@@H](O)[C@@H]1O [Fludarabine]	-42.0707	-9.248	-20.7262	-42.19	-12.4173	70 nM	42.19	–	–	–
O=C1c2c(O)ccc(O)c2C(=O)c2c(NCCNCCO)ccc(NCCNCCO)c21 [Mitoxantrone Hydrochloride]	6.699	9.033	–	5.242	–	1670 nM	17.16	17.0838	–	–
COc1c(C)c2c(c(O)c1C/C=C(\C)CCC(=O)O)C(=O)OC2 [Mycophenolic]	8.479	16.23	–	5.9818	–	–	2.17	10.92	–	–
CCc1c2c(nc3ccc(OC(=O)N4CCC(N5CCCCC5)CC4)cc13)-c1cc3c(c(=O)n1C2)COC(=O)[C@]3(O)CC [Irinotecan]	–	5.246	-6.34	-5.5855	-5.574	5110 nM	6.99	–	–	–
Nc1nc(Cl)nc2c1ncn2[C@@H]1O[C@H](CO)[C@@H](O)[C@@H]1F [Clofarabine]	-8.024	16.0076	-19.554	-10.1317	-9.559	70 nM	19.89	–	–	–
COc1cc([C@@H]2c3cc4c(cc3[C@@H](O[C@@H]3O[C@@H]5CO[C@@H](c6cccs6)O[C@H]5[C@H](O)[C@H]3O)[C@H]3COC(=O)[C@H]23)OCO4)cc(OC)c1O [Teniposide]	–	39.45	–	–	–	5170 nM	6.79	10.22	–	–
COc1cccc2c1C(=O)c1c(O)c3c(c(O)c1C2=O)C[C@@](O)(C(=O)CO)C[C@@H]3O[C@H]1C[C@H](N)[C@H](O)[C@H](C)O1 [Doxorubicin]	–	–	-12.9053	–	-8.365	1420 nM	15.67	7.66	–	–
CC(=O)O[C@H]1C(=O)[C@@]2(C)[C@H]([C@H](OC(=O)c3ccccc3)[C@]3(O)C[C@H](OC(=O)[C@H](O)[C@@H](NC(=O)c4ccccc4)c4ccccc4)C(C)=C1C3(C)C)[C@]1(OC(C)=O)CO[C@@H]1C[C@@H]2O [Paclitaxel]	-12.1	7.642	–	-17.6632	12.8	10 nM	34.94	9.33	–	–
Cc1ccc(C(=O)Nc2ccc(CN3CCN(C)CC3)c(C(F)(F)F)c2)cc1C#Cc1cnc2cccnn12 [Ponatinib]	-11.7731	-6.155	-11.756	-11.7731	-11.7711	–	11.77	–	2810 nM	–
CC(=O)O[C@@]12CO[C@@H]1C[C@H](O)[C@@]1(C)C(=O)[C@H](O)C3=C(C)[C@@H](OC(=O)[C@H](O)[C@@H](NC(=O)OC(C)(C)C)c4ccccc4)C[C@@](O)([C@@H](OC(=O)c4ccccc4)[C@H]21)C3(C)C [Docetaxel]	-15.5932	–	–	-23.2183	16.5247	3000 nM	40.14	8.04	–	–
COc1c(C)c2c(c(O)c1C/C=C(\C)CCC(=O)OCCN1CCOCC1)C(=O)OC2 [Mycophenolate mofetil]	6.417	11.03	–	–	–	2180 nM	2.66	5.44	–	–
Cc1ccc(Nc2nccc(N(C)c3ccc4c(C)n(C)nc4c3)n2)cc1S(N)(=O)=O.Cl [Pazopanib HCl]	–	11.37	–	–	–	–	0.07	8.16	–	–
CCc1c2c(nc3ccc(OC(=O)N4CCC(N5CCCCC5)CC4)cc13)-c1cc3c(c(=O)n1C2)COC(=O)[C@]3(O)CC.Cl.O.O.O [Irinotecan HCl Trihydrate]	-6.563	12.07	-12.0524	-6.3823	-7.5553	–	13.38	–	–	1570 nM

Source: publication PMC6136712, “Ex vivo drug sensitivity testing as a means for drug repurposing in esophageal adenocarcinoma” (PLoS ONE, 2018)
